{"source": "ChEMBL document CHEMBL6121016", "about": "“Design, Synthesis, and Biological Evaluation of 1,3,4-Thiadiazole Derivatives as Novel Potent Peptide Deformylase Inhibitors for Combating Drug-Resistant Gram-Positive and -Negative Bacteria” (J Med Chem, 2025)", "key": {"Staphylococcus aureus [1]": {"tested_on": "Staphylococcus aureus", "experiment": "Antibacterial activity against methicillin-susceptible Staphylococcus aureus ATCC 25923 after 16 to 18 hrs by broth microdilution method", "assay_type": "functional", "details": "time 16-18 hrs"}, "Klebsiella pneumoniae": {"tested_on": "Klebsiella pneumoniae", "experiment": "Antibacterial activity against Klebsiella pneumoniae CICC 21611 after 16 to 18 hrs by broth microdilution method", "assay_type": "functional", "details": "time 16-18 hrs"}, "Acinetobacter baumannii [2]": {"tested_on": "Acinetobacter baumannii", "experiment": "Antibacterial activity against Acinetobacter baumannii Bio 53272 after 16 to 18 hrs by broth microdilution method", "assay_type": "functional", "details": "time 16-18 hrs"}, "Acinetobacter baumannii [3]": {"tested_on": "Acinetobacter baumannii", "experiment": "Antibacterial activity against Acinetobacter baumannii Bio 53250 after 16 to 18 hrs by broth microdilution method", "assay_type": "functional", "details": "time 16-18 hrs"}, "Escherichia coli [4]": {"tested_on": "Escherichia coli", "experiment": "Antibacterial activity against Escherichia coli ATCC 10668 after 16 to 18 hrs by broth microdilution method", "assay_type": "functional", "details": "time 16-18 hrs"}, "[5]": {"experiment": "Cytotoxicity against human HeLa cells assessed as cell viability at 3.125 to 100 uM incubated for 24 hrs by MTT assay", "assay_type": "toxicity, cell-based"}, "Escherichia coli [6]": {"tested_on": "Escherichia coli", "experiment": "Potency index, ratio of LBM415 MIC to test compound MIC for antibacterial activity against Escherichia coli after 16 to 18 hrs by broth microdilution method", "assay_type": "functional", "details": "time 16-18 hrs"}, "Cell membrane": {"tested_on": "Cell membrane", "experiment": "Induction of cell membrane disruption in methicillin-resistant Staphylococcus aureus assessed as […] integrity by NucGreen/EthD-III costain fluorescent assay", "assay_type": "subcellular"}, "Acinetobacter baumannii [7]": {"tested_on": "Acinetobacter baumannii", "experiment": "Induction of morphological changes in Acinetobacter baumannii Bio 53272 assessed as increased wrinkles at 8 times of MIC incubated for 4 hrs by Field emission scanning electron microscopic analysis", "assay_type": "functional, organism-based"}, "Staphylococcus aureus [8]": {"tested_on": "Staphylococcus aureus", "experiment": "Anti-biofilm activity against methicillin-resistant Staphylococcus aureus assessed as growth inhibition at 4 microg/ml incubated for 24 hrs by microplate reader analysis relative to control", "assay_type": "functional"}, "Acinetobacter baumannii [9]": {"tested_on": "Acinetobacter baumannii", "experiment": "Anti-biofilm activity against Acinetobacter baumannii assessed as growth inhibition at 32 microg/ml incubated for 24 hrs by microplate reader analysis relative to control", "assay_type": "functional"}, "[10]": {"experiment": "Acute toxicity in KM mouse infected with drug-resistant Acinetobacter baumannii assessed as pathological changes in liver at 40 mg/kg by HE staining based analysis", "assay_type": "organism-based", "details": "in vivo"}, "Acinetobacter baumannii [11]": {"tested_on": "Acinetobacter baumannii", "experiment": "Bactericidal activity against drug-resistant Acinetobacter baumannii assessed as bacteriostatic efficiency at 0.5 to 2 microg/mL by time killing analysis", "assay_type": "functional, organism-based", "details": "dose 0.5-2 µg/ml, time 0-25 hrs"}}, "note": "The source made the active and inactive calls. The rule behind the calls is not given here.", "data": [{"molecule": "CCCC[C@H](CN(O)C=O)C(=O)N1CCC[C@H]1c1nnc(-c2cccs2)s1", "values": [{"measurement": "MIC", "setting": "Staphylococcus aureus [1]", "value": 0.25, "unit": "µg/mL"}, {"measurement": "MIC", "setting": "Klebsiella pneumoniae", "value": 8, "unit": "µg/mL"}, {"measurement": "MIC", "setting": "Acinetobacter baumannii [2]", "value": 0.5, "unit": "µg/mL"}, {"measurement": "MIC", "setting": "Acinetobacter baumannii [3]", "value": 4, "unit": "µg/mL"}, {"measurement": "MIC", "setting": "Escherichia coli [4]", "value": 8, "unit": "µg/mL"}, {"measurement": "IC50 at 24 h", "setting": "[5]", "value": "> 100", "unit": "µM"}, {"measurement": "Ratio", "setting": "Escherichia coli [6]", "value": ">16"}, {"measurement": "Activity", "setting": "Cell membrane", "value": "Active"}, {"measurement": "Activity", "setting": "Acinetobacter baumannii [7]", "value": "Active"}, {"measurement": "inhibition at 4 µg/mL", "setting": "Staphylococcus aureus [8]", "value": 88, "unit": "%"}, {"measurement": "inhibition at 32 µg/mL", "setting": "Acinetobacter baumannii [9]", "value": 70, "unit": "%"}, {"measurement": "Activity", "setting": "[10]", "value": "Non-toxic"}, {"measurement": "Activity", "setting": "Acinetobacter baumannii [11]", "value": "Dose-dependent-effect"}]}]}
